According to PubChem BioAssay (NCI):
Values joined by “and” are separate entries in the source; they are usually repeats but may differ in a detail not shown here. Equal entries are not always repeated.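 Five concentrations, 48 hours, 96-well plates. GI50 is the concentration that inhibits growth by half. TGI marks complete inhibition of growth.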

Experiments:
Test in all cases: growth of human tumour cells (NCI), 48 h
786-0 renal = tested on: 786-0 renal
HCT-15 colon = tested on: HCT-15 colon
HOP-62 NSCLC = tested on: HOP-62 NSCLC
KM12 colon = tested on: KM12 colon
M14 melanoma = tested on: M14 melanoma
NCI-H460 lung = tested on: NCI-H460 lung
SK-MEL-2 melanoma = tested on: SK-MEL-2 melanoma
UACC-62 melanoma = tested on: UACC-62 melanoma
HL-60(TB) leukemia = tested on: HL-60(TB) leukemia
T-47D breast = tested on: T-47D breast

Row | Compound | TGI (786-0 renal) | TGI (HCT-15 colon) | TGI (HOP-62 NSCLC) | TGI (KM12 colon) | TGI (M14 melanoma) | TGI (NCI-H460 lung) | TGI (SK-MEL-2 melanoma) | TGI (UACC-62 melanoma) | GI50 (786-0 renal) | GI50 (HCT-15 colon) | GI50 (HL-60(TB) leukemia) | TGI (HL-60(TB) leukemia) | GI50 (KM12 colon) | GI50 (M14 melanoma) | GI50 (NCI-H460 lung) | TGI (T-47D breast) | GI50 (UACC-62 melanoma) | GI50 (SK-MEL-2 melanoma) | GI50 (T-47D breast) | GI50 (HOP-62 NSCLC)
1 | CN1C/C(=C\C=C\c2ccccc2)C(=O)/C(=C/C=C/c2ccccc2)C1 | > 100 µM | > 100 µM | > 100 µM | > 100 µM | > 100 µM | > 100 µM | > 100 µM | > 100 µM | – | – | – | – | – | – | – | – | – | – | – | –
2 | CNCCN=c1ccc2c3c1c(O)c1c(O)ccc(=O)c1c3[nH]n2CCNCCO | 1.79 µM and 0.677 µM | 24.8 µM and 41.2 µM | – | 4.23 µM and 15.1 µM | 3.41 µM and 10.4 µM | 1.21 µM | – | 3.07 µM | 0.05 µM | 1.52 µM | 0.0496 µM and 0.314 µM | 0.663 µM and 1.22 µM | 0.918 µM | 0.397 µM and 1.19 µM | 0.000851 µM | 5.35 µM | 0.0741 µM | – | – | –
3 | COc1cc(-c2csc(NC(=O)Nc3cc(Cl)cc(Cl)c3)n2)cc(OC)c1OC | 3.33 µM | 6.97 µM | – | 8.14 µM | 3.15 µM | 3.52 µM | 7.97 µM | 3.11 µM | 1.84 µM | 2.33 µM | 3.65 µM | > 100 µM | 2.48 µM | 1.68 µM | 1.81 µM | 3.74 µM | 1.61 µM | 2.61 µM | 1.67 µM | –
4 | O=S1Nc2c(Cl)cc(Cl)c(Cl)c2S1 (centres undefined) | > 100 µM | > 100 µM | > 100 µM | > 100 µM | > 100 µM | > 100 µM | > 100 µM | > 100 µM | – | – | – | > 100 µM | – | – | – | – | – | – | – | –
5 | CC#Cc1nc(Nc2cc(C)[nH]n2)c2ccccc2n1 | 29 µM | 12.8 µM | 39.7 µM | 12.4 µM | 23.8 µM | 20.3 µM | 8.38 µM | 11.8 µM | 5.86 µM | 2.75 µM | – | – | 4.38 µM and 2.4 µM | 4.34 µM | 4.53 µM | 56.5 µM | 2.67 µM | 2.92 µM | 10.8 µM | 12.4 µM
6 | CCc1cccc(C)c1NC(=O)CC1C(=O)Nc2ccccc2S1(=O)=O (centres undefined) | 31.5 µM | 33.8 µM | – | – | 72.1 µM | 27.9 µM | 53.5 µM | 41.1 µM | – | – | – | 40.2 µM | – | – | – | – | – | – | – | –
7 | O=c1oc2ccccc2c(O)c1C(C/C(CCN1CCCC1)=N\Nc1ccccc1)c1ccccc1 (centres undefined) | > 100 µM | > 100 µM | > 100 µM | > 100 µM | > 100 µM | > 100 µM | > 100 µM | > 100 µM | – | – | – | 60 µM | – | – | – | – | – | – | – | –
8 | COC(=O)c1nn(C(=N)c2ccc(Cl)cc2)c2c1CCC2 | > 100 µM | > 100 µM | > 100 µM | > 100 µM | > 100 µM | > 100 µM | > 100 µM | > 100 µM | – | – | – | > 100 µM | – | – | – | – | – | – | – | –
9 | CCCCCn1c(C)cc(/C=C\c2ccc3cc(C)ccc3[n+]2C)c1C | 1.17 µM | 1.9 µM | 0.98 µM | 1.21 µM | 1.38 µM | 0.839 µM | – | 1.1 µM | 0.219 µM | 0.49 µM | 0.0296 µM | 0.128 µM | 0.0836 µM | 0.253 µM | 0.113 µM | 0.751 µM | 0.243 µM | – | 0.0299 µM | 0.283 µM
10 | OCCN1CCN(CC/C=C2/c3ccccc3Sc3ccc(Cl)cc32)CC1 | 26.7 µM | 26.2 µM | 29.7 µM | 23.2 µM | 6.24 µM | 16.3 µM | 28.3 µM | 6.78 µM | 13.2 µM | – | – | 16 µM | – | – | – | – | – | – | – | –
11 | C[C@]12CCC(=O)C=C1CC[C@@H]1C2CC[C@]2(C)c3nn(-c4ccccc4)nc3CC12 (some centres undefined) | > 100 µM | > 100 µM | > 100 µM | > 100 µM | > 100 µM | > 100 µM | > 100 µM | > 100 µM | – | – | – | > 100 µM | – | – | – | – | – | – | – | –
12 | Oc1c(CN2CCN(c3ccccc3)CC2)cc(Br)c2cccnc12 | 14.5 µM | > 100 µM | 15.2 µM | > 100 µM | > 42 µM | – | 42 µM | – | – | – | – | 3.81 µM | – | – | – | > 47.3 µM | – | – | – | –
13 | CC(=O)[CH-]C(=O)c1ccccc1.CC(=O)[CH-]C(=O)c1ccccc1.CC[O-].O=C1c2ccccc2C(=O)c2c1ccc(O)c2[O-].[Ti+4] | > 100 µM | > 100 µM | > 100 µM | > 100 µM | > 100 µM | > 100 µM | > 100 µM | > 100 µM | – | – | 19.6 µM | 56.6 µM | – | – | – | – | – | – | – | –
14 | CN(C)CC/C(=N\Nc1ccc(Cl)cc1Cl)c1ccccc1 | 27.5 µM | 24.9 µM | 30.3 µM | 31.2 µM | 29.1 µM | 28.3 µM | 28.6 µM | 27.7 µM | – | – | – | 21.6 µM | – | – | – | – | – | – | – | –
15 | CCCCCCCCCCC(C)CCCCCCC(=O)O (centres undefined) | > 100 µM | > 100 µM | > 100 µM | > 100 µM | > 100 µM | > 100 µM | > 100 µM | > 100 µM | – | – | – | > 100 µM | – | – | – | – | – | – | – | –
16 | C/C=N\N1C(=O)c2ccccc2C1=O | > 100 µM | > 100 µM | > 100 µM | > 100 µM | > 100 µM | > 100 µM | > 100 µM | > 100 µM | – | – | – | > 100 µM | – | – | – | – | – | – | – | –
17 | CCN(CC)CCNC(=O)c1cccc2nc3ccccc3nc12 | > 100 µM | 41.8 µM | 33.8 µM | 45.8 µM | > 48.7 µM | – | 28.2 µM | 45.9 µM | – | – | – | – | – | – | – | – | – | – | – | –
18 | N.N.O=P([O-])([O-])C1(P(=O)([O-])[O-])CCCCCN1.[Pt+2] | > 100 µM | > 100 µM | > 100 µM | > 100 µM | > 100 µM | > 100 µM | > 100 µM | > 100 µM | > 100 µM | > 100 µM | > 100 µM | > 100 µM | > 100 µM | > 100 µM | > 100 µM | – | > 100 µM | > 100 µM | – | > 100 µM
19 | NNC(=O)C(=O)N/N=C(\CCC(=O)Nc1ccc(Cl)cc1)Cc1nc2ccccc2s1 | > 100 µM | > 100 µM | > 100 µM | > 100 µM | 66.5 µM | > 100 µM | > 100 µM | 54.3 µM | – | – | – | > 100 µM | – | – | – | – | – | – | – | –
